Where “and” joins values, the source holds several entries; their conditions need not be identical. Equal values may be shown once.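 Interpolation was linear, between the two tested concentrations surrounding the appropriate level; five concentrations were tested over 48 hours in 96-well plates. Abbreviation: GI50, concentration required for 50% inhibition of growth. TGI: concentration producing complete growth inhibition.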 A value given as a limit tells only on which side of the number the result lay.

Test systems include HL-60(TB) leukemia; OVCAR-3 ovarian; MCF7 breast; COLO 205 colon; OVCAR-5 ovarian; SN12C renal; UACC-62 melanoma; SK-MEL-5 melanoma; HCT-116 colon; UO-31 renal.
Common to all, as to experiment: NCI tumour cell line growth inhibition, 48 h

`NS(=O)(=O)c1ccc(NC(=O)Nc2ccccc2F)cc1`: the TGI in the assay on HL-60(TB) leukemia was greater than 100 µM; in the assay with OVCAR-3 ovarian it was greater than 100 µM; in the assay on MCF7 breast it was greater than 100000 nM; with COLO 205 colon, greater than 100 µM; in the assay on OVCAR-5 ovarian, greater than 100 µM; with SN12C renal, greater than 100 µM. In addition, the TGI in the assay with UACC-62 melanoma, in the assay with SK-MEL-5 melanoma, with HCT-116 colon and with UO-31 renal was greater than 100 µM each time.
On to `N#Cc1c2c(c(-c3cccs3)n(C3OC(CO)C(O)C(O)C3O)c1=S)CCc1ccccc1-2` (configuration not stated), for which the TGI is greater than 84.7 µM with HL-60(TB) leukemia; greater than 100 µM with OVCAR-3 ovarian; greater than 100000 nM in the assay on MCF7 breast; greater than 100 µM in the assay with COLO 205 colon; greater than 100 µM in the assay with OVCAR-5 ovarian; greater than 100 µM in the assay on SN12C renal. Further, the TGI in the assay with UACC-62 melanoma, in the assay with SK-MEL-5 melanoma, with HCT-116 colon and in the assay with UO-31 renal was greater than 100 µM each time. Further, the GI50 is 6470 nM and 28400 nM in the assay with SK-MEL-5 melanoma; 7390 nM and 15500 nM in the assay on HCT-116 colon.
Regarding `COc1c(N2CCN(Cn3c(O)c(N=NC(=O)c4ccncc4)c4cc(F)ccc43)C(C)C2)c(F)cc2c(=O)c(C(=O)O)cn(C3CC3)c12` (configuration not stated), the GI50 was greater than 50000 nM in the assay on HL-60(TB) leukemia; 10500 nM in the assay with OVCAR-3 ovarian; 12400 nM in the assay on MCF7 breast; greater than 50000 nM in the assay on COLO 205 colon; 33300 nM in the assay on OVCAR-5 ovarian; 42800 nM in the assay with SN12C renal. In addition, the GI50 in the assay on UACC-62 melanoma is greater than 50000 nM; with SK-MEL-5 melanoma, 16600 nM; in the assay with HCT-116 colon it was 8240 nM; with UO-31 renal, greater than 50000 nM. In addition, the TGI was greater than 50 µM in the assay with HL-60(TB) leukemia; 23.8 µM in the assay with OVCAR-3 ovarian; greater than 50000 nM in the assay on MCF7 breast; greater than 50 µM with COLO 205 colon; greater than 50 µM with OVCAR-5 ovarian; greater than 50 µM in the assay on SN12C renal. The TGI is greater than 50 µM in the assay with UACC-62 melanoma, greater than 50 µM in the assay on SK-MEL-5 melanoma, 15 µM in the assay on HCT-116 colon and greater than 50 µM in the assay with UO-31 renal.
As for `CCCCCc1c(C)[nH]c(/C=C2\N=C(c3ccc[nH]3)C=C2OCc2ccccc2)c1C`, the GI50 is 62.3 nM in the assay on HL-60(TB) leukemia; 44.7 nM and 26.4 nM in the assay on OVCAR-3 ovarian; 39.5 nM and 36.1 nM with MCF7 breast; 43.6 nM and 26 nM with COLO 205 colon; 70.1 nM and 47.3 nM with OVCAR-5 ovarian; 70.3 nM and 45.8 nM in the assay on SN12C renal. Besides, the GI50 is 23 nM in the assay with UACC-62 melanoma; 35.8 nM and 18.6 nM with SK-MEL-5 melanoma; 34.3 nM and 18.6 nM in the assay on HCT-116 colon; 103 nM and 31.8 nM with UO-31 renal. Also, the TGI was 0.425 µM in the assay on HL-60(TB) leukemia; 0.463 µM and 0.139 µM in the assay on OVCAR-3 ovarian; 859 nM and 1060 nM in the assay with MCF7 breast; 0.661 µM and 0.159 µM in the assay on COLO 205 colon; 2.31 µM and 1.63 µM with OVCAR-5 ovarian; 1.43 µM and 0.268 µM in the assay on SN12C renal. Also, the TGI was 0.0538 µM and 0.0506 µM in the assay with UACC-62 melanoma; 0.138 µM and 0.0471 µM in the assay on SK-MEL-5 melanoma; 0.189 µM and 0.133 µM in the assay with HCT-116 colon; 0.282 µM and 0.128 µM in the assay with UO-31 renal.
Regarding `COc1cc([C@@H]2c3cc4c(cc3C(OC3O[C@@H]5COC(C)O[C@H]5[C@H](O)[C@H]3O)C3COC(=O)[C@@H]32)OCO4)cc(OC)c1O` (some centres not stated), the GI50 in the assay on HL-60(TB) leukemia is 182 nM; with OVCAR-3 ovarian, 4800 nM; in the assay with MCF7 breast, 254 nM; with COLO 205 colon it was 3680 nM; in the assay with OVCAR-5 ovarian it was 11000 nM; in the assay with SN12C renal, 917 nM. The GI50 with UACC-62 melanoma was 868 nM; in the assay with SK-MEL-5 melanoma, 861 nM; with HCT-116 colon it was 1270 nM; in the assay with UO-31 renal it was 3000 nM. Moreover, the TGI in the assay with HL-60(TB) leukemia was 1.53 µM; in the assay with OVCAR-3 ovarian it was greater than 28 µM; in the assay with MCF7 breast, greater than 50000 nM; in the assay on COLO 205 colon, 21.3 µM; in the assay with OVCAR-5 ovarian, greater than 50 µM; in the assay with SN12C renal, 12.4 µM. Further, the TGI is greater than 44.9 µM in the assay on UACC-62 melanoma, 7.96 µM with SK-MEL-5 melanoma, greater than 50 µM with HCT-116 colon and 31.6 µM in the assay on UO-31 renal.
As to `Cc1cc(O)c(C(c2ccncc2)c2c(O)cc(C)[nH]c2=O)c(=O)[nH]1`, the TGI is greater than 100 µM in the assay on HL-60(TB) leukemia; greater than 100 µM in the assay on OVCAR-3 ovarian; greater than 100000 nM with MCF7 breast; greater than 100 µM in the assay on COLO 205 colon; greater than 100 µM with OVCAR-5 ovarian; greater than 100 µM in the assay with SN12C renal. The TGI with UACC-62 melanoma, in the assay on SK-MEL-5 melanoma, in the assay on HCT-116 colon and in the assay with UO-31 renal was greater than 100 µM in each case.
Regarding `O=C(CCl)Nc1cc(O)c2c(c1)C(=O)c1cccc(O)c1C2=O`, the GI50 is 2440 nM with HL-60(TB) leukemia; 1230 nM in the assay on OVCAR-3 ovarian; 725 nM in the assay with MCF7 breast; 1550 nM in the assay with COLO 205 colon; 2320 nM with OVCAR-5 ovarian; 680 nM with SN12C renal. Also, the GI50 in the assay with UACC-62 melanoma is 1470 nM; in the assay with SK-MEL-5 melanoma, 549 nM; with HCT-116 colon, 646 nM; with UO-31 renal, 1390 nM. In addition, the TGI in the assay on HL-60(TB) leukemia amounted to 6.08 µM; in the assay with OVCAR-3 ovarian, 2.49 µM; in the assay on MCF7 breast, 2610 nM; in the assay with COLO 205 colon, 3.35 µM; in the assay with OVCAR-5 ovarian, 5.19 µM; with SN12C renal it was 1.98 µM. For the same molecule, the TGI with UACC-62 melanoma came to 3.84 µM; in the assay on SK-MEL-5 melanoma, 1.61 µM; in the assay with HCT-116 colon, 2.12 µM; with UO-31 renal, 2.71 µM.
